The source of these data is PMC9945182 (Chemical Research in Toxicology, 2023).

In data set [1] the target is T1, CYP2A6 (Homo sapiens, UniProt P11509).
T1 sequence (P11509 1-494): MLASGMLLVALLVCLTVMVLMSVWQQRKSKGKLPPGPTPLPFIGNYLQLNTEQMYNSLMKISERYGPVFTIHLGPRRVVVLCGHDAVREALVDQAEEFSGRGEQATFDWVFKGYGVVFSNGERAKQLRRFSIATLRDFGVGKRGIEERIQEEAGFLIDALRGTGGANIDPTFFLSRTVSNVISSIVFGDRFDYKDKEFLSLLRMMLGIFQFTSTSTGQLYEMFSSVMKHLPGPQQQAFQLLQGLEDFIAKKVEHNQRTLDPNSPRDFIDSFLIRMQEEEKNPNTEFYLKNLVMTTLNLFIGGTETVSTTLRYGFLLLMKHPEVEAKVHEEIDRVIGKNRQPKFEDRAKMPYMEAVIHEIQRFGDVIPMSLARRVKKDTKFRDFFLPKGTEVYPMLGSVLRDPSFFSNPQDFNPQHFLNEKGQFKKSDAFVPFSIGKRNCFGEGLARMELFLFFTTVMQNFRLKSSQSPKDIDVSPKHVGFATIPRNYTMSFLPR
In kind it is biochemical. As to conditions: 10 μM inhibitor; nicotine substrate; CYP2A6 microsomes; vs 100% activity control.

The target of data set [2] is T1, CYP2A6. The format is biochemical. The conditions noted are these: 10 μM inhibitor; nicotine substrate; CYP2A6 microsomes.
The target in another data set is T2, CYP2B6 (Homo sapiens, UniProt P20813).
T2 sequence (P20813 1-491): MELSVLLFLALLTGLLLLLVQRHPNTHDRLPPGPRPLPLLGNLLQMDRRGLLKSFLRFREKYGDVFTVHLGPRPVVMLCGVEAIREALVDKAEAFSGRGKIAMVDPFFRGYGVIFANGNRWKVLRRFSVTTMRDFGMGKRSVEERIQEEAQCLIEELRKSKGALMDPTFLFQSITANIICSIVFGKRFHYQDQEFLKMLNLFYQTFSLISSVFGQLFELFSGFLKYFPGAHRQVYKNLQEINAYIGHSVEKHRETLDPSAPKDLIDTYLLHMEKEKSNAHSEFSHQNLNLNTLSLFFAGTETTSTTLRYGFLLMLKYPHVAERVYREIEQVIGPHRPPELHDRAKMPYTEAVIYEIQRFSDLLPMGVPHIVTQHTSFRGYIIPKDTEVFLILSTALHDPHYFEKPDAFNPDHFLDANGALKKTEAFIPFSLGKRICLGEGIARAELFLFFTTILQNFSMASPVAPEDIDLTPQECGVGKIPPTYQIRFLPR
The format is biochemical. As to conditions: human, microsomes from CYP2B6-overexpressing HEK293 cells, pH 7.4, probe nicotine (cotinine formation).

The target of another data set is T3, UGT2B7 (Homo sapiens, UniProt P16662).
T3 sequence (P16662 24-529): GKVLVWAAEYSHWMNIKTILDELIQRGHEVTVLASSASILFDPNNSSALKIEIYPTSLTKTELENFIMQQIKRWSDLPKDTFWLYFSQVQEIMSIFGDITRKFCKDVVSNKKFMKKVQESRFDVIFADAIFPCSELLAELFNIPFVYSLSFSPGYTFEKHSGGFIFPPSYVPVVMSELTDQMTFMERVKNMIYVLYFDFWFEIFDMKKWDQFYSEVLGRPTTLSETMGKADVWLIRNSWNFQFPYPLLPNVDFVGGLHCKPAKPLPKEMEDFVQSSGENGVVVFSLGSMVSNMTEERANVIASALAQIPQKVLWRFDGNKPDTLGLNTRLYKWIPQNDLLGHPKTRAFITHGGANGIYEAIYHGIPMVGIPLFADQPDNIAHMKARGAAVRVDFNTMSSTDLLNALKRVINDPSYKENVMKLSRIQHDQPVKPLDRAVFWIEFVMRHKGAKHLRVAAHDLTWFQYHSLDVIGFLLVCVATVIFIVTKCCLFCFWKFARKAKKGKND
The format is biochemical. As to conditions: human, microsomes from UGT2B7-overexpressing HEK293 cells, pH 7.4, probe 3HC (30 mM), 3HC-Gluc formation.

Another data set concerns the target T4, UGT2B17 (Homo sapiens, UniProt O75795).
T4 sequence (O75795 24-530): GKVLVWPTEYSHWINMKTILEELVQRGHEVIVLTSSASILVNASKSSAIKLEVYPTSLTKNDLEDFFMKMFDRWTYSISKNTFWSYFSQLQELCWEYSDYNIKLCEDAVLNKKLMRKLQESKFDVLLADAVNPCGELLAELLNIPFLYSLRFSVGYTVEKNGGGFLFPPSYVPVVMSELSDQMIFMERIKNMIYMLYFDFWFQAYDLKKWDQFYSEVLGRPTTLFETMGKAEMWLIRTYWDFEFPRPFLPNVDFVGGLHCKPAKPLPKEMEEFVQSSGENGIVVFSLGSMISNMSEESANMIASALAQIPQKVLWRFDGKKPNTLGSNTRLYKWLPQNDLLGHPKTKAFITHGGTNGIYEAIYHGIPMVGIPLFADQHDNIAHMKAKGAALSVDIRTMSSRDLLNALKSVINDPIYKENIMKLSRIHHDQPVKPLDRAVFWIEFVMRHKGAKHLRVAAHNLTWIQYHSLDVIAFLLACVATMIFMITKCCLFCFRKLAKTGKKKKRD
In kind it is biochemical. As to conditions: human, microsomes from UGT2B17-overexpressing HEK293 cells, pH 7.4, probe 3HC (30 mM), 3HC-Gluc formation.

The conditions of data set [3]: majority of tobacco users; cited from earlier work.
Data set [4] relates to CYP2A6. As to conditions: cited from earlier work.

SMILES strings stand for the structures.

In the case of `N[C@@H]1C[C@H]1c1ccccc1` (racemic) [tranylcypromine], the “inhibition of cotinine formation” value against CYP2A6 [1] was found to be 70%. Moreover, the “inhibition of nornicotine formation” value against CYP2A6 [2] came to 95%. In general, inhibition refers to the share of the control response that was lost under treatment. Low readings indicate a response near the control, high ones a response far below the control. Turning to `COC(=O)[C@H](c1ccccc1Cl)N1CCc2sccc2C1` [clopidogrel], the inhibition at 30 min, 50 µM against CYP2B6 was 60%.

Turning to `Cc1ccc(NC(=O)c2ccc(CN3CCN(C)CC3)cc2)cc1Nc1nccc(-c2cccnc2)n1` [imatinib], the inhibition at 200 µM against UGT2B7 and against UGT2B17 was no more than 65% each time.

As for `CN1CCC[C@H]1c1cccnc1` [nicotine], the “fraction of nicotine metabolized to cotinine by CYP2A6” value in data set [3] was “greater than 70%”. One may read the Ki as the equilibrium dissociation constant of an inhibitor or competing ligand from its target. For the molecule `C#CCN(C)[C@H](C)Cc1ccccc1` [selegiline], in the data set on CYP2A6 [4], the Ki is 4.6 µM.
